The values below are quoted from earlier work in patent publication US20180185286A1, “POROUS MATERIALS CONTAINING COMPOUNDS INCLUDING […] ACTIVE SPECIES” (NOVARTIS PHARMA AG, priority 2014, published 2018).

Converted amounts (≈) assume the structure as drawn.

The conditions of this series: in the absence of being incorporated within a porous material.

With `O=C(O)c1ccc(-n2nc(-c3ccccc3O)nc2-c2ccccc2O)cc1` [deferasirox], the aqueous solubility is 38 µg/mL (≈ 102 µM). With `CCOC(=O)C1=C(C)NC(C)=C(C(=O)OC)C1c1cccc(Cl)c1Cl` (centres unmarked) [felodipine], the aqueous solubility is 19 µg/mL (≈ 49.4 µM). Turning to `O=C1[C@H](CC[C@H](O)c2ccc(F)cc2)[C@@H](c2ccc(O)cc2)N1c1ccc(F)cc1` [ezetimibe], the aqueous solubility result is listed as “essentially insoluble in aqueous solutions”. Turning to `CC(C)Cc1ccc(C(C)C(=O)O)cc1` (centres unmarked) [ibuprofen], the aqueous solubility was 38 µg/mL (≈ 184 µM). Take `COc1ccc2c(c1)c(CC(=O)O)c(C)n2C(=O)c1ccc(Cl)cc1` [indomethacin]: the aqueous solubility is 2.5 µg/mL (≈ 6.99 µM).

Usually aqueous solubility stands for the dissolved amount per volume that the medium holds.
